Measured values as given in US5492906A, “Derivatives of thieno-triazolo-diazepine and therapeutic compositions containing them” (Societe de Conseils de Recherches et d'Applications …, priority 1989, dated 1996).

What was measured:
[1] = test system: platelet agregation induced by PAF; experiment: Inhibition of platelet agregation induced by PAF; type: cell-based, New Zealand rabbits; conditions: Oryctolagus cuniculus, New Zealand rabbit platelets, agregometer at 57° C., Table I
Description: 1) Inhibition of platelet agregation induced by PAF
This experimentation was conducted according to the method of R. KINLOUGH. RATHBONE, J. P. CAZENAVE, M. PACKHAM and F. MUSTARD, Lab. Invest. 48, 98, 1980. In this test, New Zealand rabbits were used (male New Zealand rabbits of an average weight of 5 kg).
The determinations are made on a chrono-log Coultronics agregometer, at […] coupled with a graphic recorder; the results of these determinations (in molecular concentration) are reported on the table I on the central column.

[2] = biological target: benzodiazepine receptors; experiment: Inhibition of the binding to benzodiazepine receptors (rat brains); conditions: rat brains incubated 1 h 30 at 4° C.; 3H-RO-15-4788 and 3H-RO-5-4864 as tracers; Table I; read-out: BDZ receptors (inhibition of the binding to benzodiazepine receptors)
Description: 2) Inhibition of the binding to benzodiazepine receptors
The interest of the previous experimentation depends on the results obtained in this experimentation: as a compound of the invention has a benzodiazepine like structure, it is important to check whether the specific benzodiazepine activity would not appear at the dose where platelet agregation was inhibited.
Therefore, this experimentation has been conducted according to the method of MOHLER H. and RICHARD J. G. Agonist and antagonist benzodiazepine receptor intereaction in vitro, Nature, vol. 294, 763°-765, 1981.
This experimentation was conducted on rat brains incubated 1 h 30 at 4° C. using ^3 H-RO-15-4788 and ^3 H-RO-5-4864 (NEN) as tracers and […] and RO-5-4864 as reference antagonists.
The results in molecular concentration are reported in the table I, on the right hand column.

Structure (SMILES) | IC50 [1] [nM] | IC50 [2] [nM]
Cc1nnc2n1-c1sc3c(c1C(c1ccccc1Cl)=NC2)CCN(C(=O)NC(C)C)C3 [Example 2, 6-(2-chlorophenyl)-9-isopropylcarbamoyl-7,8,9,10-tetra-hydro-1-methyl4H-pyrido[4',3':4,5]thieno[3,2-f]1,2,4-triazolo [4,3-a] 1,4-diazepine] | 23.5 | 66000
Cc1nnc2n1-c1sc3c(c1C(c1ccccc1Cl)=NC2)CCN(C(=S)NC(C)(C)C)C3 [Example 4, 6-(2-chlorophenyl)-9-tertbutylthiocarbamoyl-7,8,9,10-tetrahydro-1-methyl4H-pyrido[4',3':4,5]theno [3,2-f]1,2,4-triazolo[4,3-a]1,4-diazepine] | 8.82 | 135
COc1ccc(NC(=O)N2CCc3c(sc4c3C(c3ccccc3Cl)=NCc3nnc(C)n3-4)C2)cc1 [Example 6, 6-(2-chlorophenyl)-9-(4-methoxy)phenylcarbamoyl-7,8,9,10-tetrahydro-1-methyl 4H-pyrido[4',3':4,5]thieno[3,2-f]1,2,4-triazolo[4,3-a]1,4-diazepine] | 127 | 77000
COc1cc(NC(=S)N2CCc3c(sc4c3C(c3ccccc3Cl)=NCc3nnc(C)n3-4)C2)cc(OC)c1OC [Example 9, 6-(2-chlorophenyl)-9-(3,4,5-trimethoxy)phenylthiocarbamoyl-7,8,9,10-tetrahydro-1-methyl 4H-pyrido[4',3':4,5]thieno [3,2-f]1,2,4-triazolo[4,3-a]1,4-diazepine] | 38.7 | 4500
Cc1nnc2n1-c1sc3c(c1C(c1ccccc1Cl)=NC2)CCN(C(=S)Nc1ccc(C(C)(C)C)cc1)C3 [Example 11, 6-(2-chlorophenyl)-9-(4-tertbutyl)phenylthiocarbamoyl-4H-pyrido[4',3':4,5]thieno [3,2-f]1,2,4-triazolo[4,3-a]1,4-diazepine] | 9.44 | 1200
Cc1nnc2n1-c1sc3c(c1C(c1ccccc1Cl)=NC2)CCN(C(=S)Nc1ccccc1C(F)(F)F)C3 [Example 12, 6-(2-chlorophenyl)-9-(2-trifluoromethyl)phenylthiocarbamoyl-7,8,9,10-tetrahydro-1-methyl 4H-pyrido[4',3':4,5]thieno[3,2-f]1,2,4-triazolo[4,3-a]1,4-diazepine] | 171 | 3500
Cc1nnc2n1-c1sc3c(c1C(c1ccccc1Cl)=NC2)CCN(C(=S)Nc1cccc(C(F)(F)F)c1)C3 [Example 13, 6-(2-chlorophenyl)-9-(3-trifluoromethyl)phenylthiocarbamoyl-7,8,9,10-tetrahydro-1-methyl 4H-pyrido[4',3':4,5]thieno[3,2-f]1,2,4-triazolo[4,3-a]1,4-diazepine] | 171 | 6250
Cc1nnc2n1-c1sc3c(c1C(c1ccccc1Cl)=NC2)CCN(C(=S)Nc1ccc(C(F)(F)F)cc1)C3 [Example 15, 6-(2-chlorophenyl)-9-(4-trifluoromethyl)phenylthiocarbamoyl-7,8,9,10-tetrahydro-1-methyl 4H-pyrido[4',3':4,5]thieno[3,2-f]1,2,4-triazolo[4,3-a]1,4-diazepine] | 220 | 1250
Cc1nnc2n1-c1sc3c(c1C(c1ccccc1Cl)=NC2)CCN(C(=S)Nc1ccc(F)cc1)C3 [Example 16, 6-(2-chlorophenyl)-9-(4-fluoro)phenylthiocarbamoyl-7,8,9,10-tetrahydro-1-methyl 4H-pyrido[4',3':4,5]thieno[3,2-f]1,2,4-triazolo[4,3-a]1,4-diazepine] | 64 | 700
Cc1nnc2n1-c1sc3c(c1C(c1ccccc1Cl)=NC2)CCN(C(=S)NC(C)Cc1ccccc1)C3 (stereo not drawn) [Example 19, 6-(2-chlorophenyl)-9-(α-methyl)phenethylthiocarbamoyl-7,8,9,10-tetrahydro-1-methyl 4H-pyrido[4',3':4,5]thieno[3,2-f]1,2,4-triazolo[4,3-a]1,4-diazepine] | 42.5 | 360
Cc1nnc2n1-c1sc3c(c1C(c1ccccc1Cl)=NC2)CCN(C(=S)NCC(C)c1ccccc1)C3 (stereo not drawn) [Example 20, 6-(2-chlorophenyl)-9-(β-methyl)phenethylthiocarbamoyl-7,8,9,10-tetrahydro-1-methyl 4H-pyrido[4',3':4,5]thieno[3,2-f]1,2,4-triazolo[4,3-a]1,4-diazepine] | 6.17 | 720
Cc1nnc2n1-c1sc3c(c1C(c1ccccc1Cl)=NC2)CCN(C(=S)Nc1ccc(S(C)(=O)=O)cc1)C3 [Example 21, 6-(2-chlorophenyl)-9-(4-methylsulfonyl)phenylthiocarbamoyl-7,8,9,10-tetrahydro-1-methyl 4H-pyrido[4',3':4,5]thieno[3,2-f]1,2,4-triazolo[4,3-a]1,4-diazepine] | 24 | 1100
Cc1nnc2n1-c1sc3c(c1C(c1ccccc1Cl)=NC2)CCN(C(=O)NCc1ccccc1)C3 [Example 23, 6-(2-chlorophenyl)-9-benzylcarbamoyl-7,8,9,10-tetrahydro-1-methyl-4H-pyrido[4',3':4,5]thieno[3,2-f]1,2,4-triazolo[4,3-a]1,4-diazepine] | 66.8 | 1600
Cc1nnc2n1-c1sc3c(c1C(c1ccccc1Cl)=NC2)CCN(C(=S)Nc1cnc2ccccc2c1)C3 [Example 25, 6-(2-chlorophenyl)-9-(3-quinolyl)thiocarbamoyl-7,8,9,10-tetrahydro-1-methyl-4H-pyrido[4',3':4,5]thieno[3,2-f]1,2,4-triazolo[4,3-a]1,4-diazepine] | 182 | 350
Cc1nnc2n1-c1sc3c(c1C(c1ccccc1Cl)=NC2)CCN(C(=S)NC1CCCCC1)C3 [Example 26, 6-(2-chlorophenyl)-9-cyclohexylthiocarbamoyl-7,8,9,10-tetrahydro-1-methyl-4H-pyrido[4',3':4,5]thieno[3,2-f]1,2,4-triazolo[4,3-a]1,4-diazepine] | 53.3 | 4100
Cc1nnc2n1-c1sc3c(c1C(c1ccccc1Cl)=NC2)CCN(C(=O)NC1CCCCC1)C3 [Example 27, 6-(2-chlorophenyl)-9-cyclohexylcarbamoyl-7,8,9,10-tetrahydro-1-methyl-4H-pyrido[4', 3':4,5]thieno[3,2-f]1,2,4-triazolo[4,3-a]1,4-diazepine] | 45.2 | 2000
C=CCNC(=S)N1CCc2c(sc3c2C(c2ccccc2Cl)=NCc2nnc(C)n2-3)C1 [Example 28, 6-(2-chlorophenyl)-9-allylthiocarbamoyl-7,8,9,10-tetrahydro-1-methyl-4H-pyrido[4',3':4,5]thieno[3,2-f]1,2,4-triazolo[4,3-a]1,4-diazepine] | 9.05 | 140
Cc1nnc2n1-c1sc3c(c1C(c1ccccc1Cl)=NC2)CCN(C(=O)Nc1ccc(F)cc1F)C3 [Example 29, 6-(2-chlorophenyl)-9-(2,4-difluoro)phenylcarbamoyl-7,8,9,10-tetrahydro-1-methyl-4H-pyrido [4',3':4,5]thieno[3,2-f]1,2,4-triazolo[4,3-a]1,4-diazepine] | 58.6 | 220
Cc1nnc2n1-c1sc3c(c1C(c1ccccc1Cl)=NC2)CCN(C(=S)NS(=O)(=O)c1ccco1)C3 [Example 31, 6-(2-chlorophenyl)-9-(2-furylsulfonyl)thiocarbamoyl-7,8,9,10-tetrahydro-1-methyl-4H-pyrido[4',3':4,5]thieno[3,2-f]1,2,4-triazolo[4,3-a]1,4-diazepine] | 8.15 | 615
Cc1nnc2n1-c1sc3c(c1C(c1ccccc1Cl)=NC2)CCN(C(=O)NS(=O)(=O)c1cccs1)C3 [Example 32, 6-(2-chlorophenyl)-9-(2-thienylsulfonyl)carbamoyl-7,8,9,10-tetrahydro-1-methyl-4H-pyrido[4',5':4,5]thieno[3,2-f]1,2,4-triazolo[4,3-a]1,4-diazepine] | 66.6 | 4330
Cc1nnc2n1-c1sc3c(c1C(c1ccccc1Cl)=NC2)CCN(C(=O)NS(=O)(=O)c1cccnc1)C3 [Example 34, 6-(2-chlorophenyl)-9-(3-pyridylsulfonyl)carbamoyl-7,8,9,10-tetrahydro-1-methyl-4H-pyrido[4',3':4,5]thieno[3,2-f]1,2,4-triazolo[4,3-a]1,4-diazepine] | 100 | 40000
Cc1nnc2n1-c1sc3c(c1C(c1ccccc1Cl)=NC2)CCN(C(=S)NS(=O)(=O)c1ccnc2ccccc12)C3 [Example 35, 6-(2-chlorophenyl)-9-(4-quinolylsulfonyl)thiocarbamoyl-7,8,9,10-tetrahydro-1-methyl-4H-pyrido[4',3':4,5]thieno [3,2-f]1,2,4-triazolo[4,3-a]1,4-diazepine] | 34 | 2200
Cc1nnc2n1-c1sc3c(c1C(c1ccccc1Cl)=NC2)CCN(C(=O)NS(=O)(=O)N1CCOCC1)C3 [Example 36, 6-(2-chlorophenyl)-9-(4-morpholinylsulfonyl)carbamoyl-7,8,9,10-tetrahydro-1-methyl-4H-pyrido[4',3':4,5]thieno[3,2-f]1,2,4-triazolo[4,3-a]1,4-diazepine] | 6.1 | 7250
